Data taken from US20100069335A1, “Prevention and Treatment of Ophthalmic Complications of Diabetes” (priority 2005, published 2010).

Legend:
[1] = system: rat lens organ culture; test: Glucose-induced toxicity in rat lens organ culture (RLCE); format: cell-based; details: 50 mM glucose, 4 mM MSM, 0.5 mM EDTA
Method: Animals. Male Sprague-Dawley rats weighing 200-250 g were obtained from Central Animal Care Services at the University of Texas Medical Branch. The NIH guidelines and ARVO statement for the Use of Animals in Ophthalmic and Vision Research were strictly followed for the welfare of the animals. Rats were sacrificed with using 100% carbon dioxide at a low flow rate (25-30% of the volume of the cage per minute) with two rats in a cage. After the rats stopped breathing for about 2 minutes, the eyeballs were removed. […] Experimental Procedure. 1. Sacrificed four rats, removed the eyeballs as soon as possible and put them into a tube containing PBS with 0.1% gentamicin. 2. Dissected the lenses immediately and washed with 1% penicillin/streptomycin in sterile with PBS. 3. Transferred each lens to a well of a 12-well plate (2 ml of medium per well, i.e., per lens). Each treatment was performed in 2 wells. The lenses were cultured in medium 199 containing 0.1% gentamicin at 37° C. in a 5% CO2 humidified atmosphere. Reagents as described above were added to three groups of two wells to give the following three treatments: • 50 mM glucose • 50 mM glucose+4 mM MSM • 50 mM glucose+4 mM MSM+0.5 mM EDTA One group of two wells was left untreated as a control. […] Photographs were taken using a Multidimensional Imaging System, and the level of light transparency through the lenses was determined

[2] = system: Human lens epithelial cells (HLEC); test: Viability of human lens epithelial cells subjected to glucose-induced toxicity (Trypan Blue); format: cell-based; details: 50 mM glucose; 4 mM MSM, 0.5 mM EDTA; 16 hrs; glucose alone decreased viability by 30%
Method: Cell Culture and Treatment. Human lens epithelial […] extended life span were cultured in DMEM medium containing 0.1% gentamicin and supplemented with 20% fetal bovine serum at 37° C. in a 5% CO2-humidified atmosphere. 1.0×10^5 […] (Passage 5) were seeded in 12-well plate overnight prior to the addition of glucose, MSM or MSM/EDTA. The wells were divided into six groups of two wells. Cell viability. Cell survival was determined by Trypan Blue staining and counted with a hemocytometer. Dead cells stain blue, while live cells exclude Trypan Blue. Cell viability is represented as a percentage corresponding to the number of live cells divided by the total cells. […] DMEM+20% FBS+0.1% gentamicin • 400 mM MSM: 376 mg/10 ml PBS for stock • 50 mM EDTA (Tetrasodium Salt): 190 mg/10 ml PBS for stock, pH 7.2 • 5 M Glucose: 1800 mg/10 ml of dd H2O Experimental Procedure. 1. Seeded 0.5×10^5/ml of HLEC (Passage 5) into three 12-well plates, then incubated at 37° C. overnight. 2. Changed medium to 2% FBS DMEM medium. 3. […] They were harvested with 0.25% Trypsin-EDTA and cell viability was determined with Trypan-Blue.

[3] = at 79° F.; cited from earlier work

CS(C)(=O)=O [MSM, methylsulfonylmethane]
lens opacification by glucose (photographs, FIG. 2) ([1]; seven days of culture): mitigated lens opacification
light transmission through the lens, relative to the untreated control (FIG. 3) ([1]; seven days, glucose alone 45%): 68%
percent cell viability (FIG. 6) [2]: increased the percent cell viability
water solubility [3]: 34 % w/v
